Measurements reported in patent US11648254B2 (Kumquat Biosciences Inc., priority 2021, dated 2023).
Where two headings read alike, the source gives them in different places.

Legend:
[1] = biological target: SOS1 (Homo sapiens (Human), UniProt Q07889); test: Ras-SOS interaction assay (HTRF); assay type: biochemical
[2] = tested on: MIA PaCa-2 cells (K-Ras G12C); test: Ras-SOS cellular growth inhibition assay (CellTiter-Glo, 3D); assay type: cell-based; conditions: Homo sapiens
Protocol: MIA PaCa-2 (ATCC CRL-1420) and NCI-H1792 (ATCC CRL-5895) cell lines comprise a G12C mutation can be used to assess Ras cellular signaling in vitro, e.g., in response to a subject compound of the present disclosure. […] Cell culture medium (comprising, for example, MIA PaCa-2 cells) is prepared with DMEM/Ham's F12 (e.g., with stable Glutamine, 10% FCS, and 2.5% Horse Serum. NCI-H1792 culture medium is prepared with RPMI 1640 (e.g., with stable Glutamine) and 10% FCS. A CellTiter-Glo (CTG) luminescent based assay (Promega) is used to assess growth of the cells, as a measurement of the ability of the compounds herein to inhibit Ras signaling in the cells. The cells (e.g., 800-1200 per well) are seeded in their respective culture medium in standard tissue culture-treated ultra-low attachment surface 96-well format plates (Corning Costar #3474). The day after plating, cells are treated with a dilution series (e.g., a 9 point 3-fold dilution series) of the compounds herein (e.g., approximately 125 μl final volume per well). Cell viability can be monitored (e.g., approximately 5 days later) according to the manufacturer's recommended instructions, where the CellTiter-Glo reagent is added (e.g., approximately 65 μl), vigorously mixed, covered, and placed on a plate shaker (e.g., approximately for 20 min) to ensure sufficient cell lysis prior to assessment of luminescent signal. The IC50 values are determined using the four-parameter fit. The resulting IC50 value is a measurement of the ability of the compounds herein to reduce cell growth of Ras-driven cells as representative tumor cells.

[3] = tested on: NCI-H1975 cells (EGFR T790M L858R); test: EGFR-SOS cellular inhibition assay (CellTiter-Glo, 3D); assay type: cell-based; conditions: Homo sapiens
[4] = K-RasG13D utilized, read-out: IC50 inhibition of SOS
[5] = K-RasG13D, read-out: IC50 value against SOS1
[6] = MIA PaCa-2, 120 h, MIA PaCa-2, 3D proliferation, about 5 days, read-out: Bio-Cell-Prolif-3D (MiaPaca2 IC50)
[7] = MIA PaCa-2, MIA PaCa-2, read-out: IC50 in inhibiting MIA PaCa-2 cell growth
[8] = 120 h, NCI-H1975, 3D proliferation, about 5 days, read-out: Bio-Cell-Prolif-3D (H1975 IC50)
[9] = NCI-H1975, EGFR T790M L858R, read-out: IC50 in inhibiting growth of NCI-H1975 cell line

Sequence of SOS1 (Q07889 564-1049): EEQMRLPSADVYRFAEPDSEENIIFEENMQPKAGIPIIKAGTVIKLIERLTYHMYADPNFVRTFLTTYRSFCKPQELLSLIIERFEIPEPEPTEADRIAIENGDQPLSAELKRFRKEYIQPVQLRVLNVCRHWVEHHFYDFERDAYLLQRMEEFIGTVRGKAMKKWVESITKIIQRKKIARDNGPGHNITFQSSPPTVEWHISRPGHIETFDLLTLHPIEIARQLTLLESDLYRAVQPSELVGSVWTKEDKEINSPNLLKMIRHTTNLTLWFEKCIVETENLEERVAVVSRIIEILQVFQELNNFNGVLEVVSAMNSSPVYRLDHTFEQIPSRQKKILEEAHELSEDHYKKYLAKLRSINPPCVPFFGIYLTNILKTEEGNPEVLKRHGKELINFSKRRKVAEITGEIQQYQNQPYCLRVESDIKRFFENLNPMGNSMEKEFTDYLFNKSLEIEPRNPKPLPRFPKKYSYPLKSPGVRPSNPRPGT

Row | IC50 [1, 4] [nM] | IC50 [1, 5] [nM] | IC50 [2, 6] [nM] | IC50 [2, 7] [nM] | IC50 [3, 8] [nM] | IC50 [3, 9] [nM] | SMILES
1 | < 100 | < 50 | ≤ 1000 | < 500 | ≤ 1000 | < 500 | COc1nc2nc(C)nc(N[C@H](C)c3cccc(C(F)F)c3F)c2cc1C1CCN(C(C)C)CC1 [Compound 112, (R)-N-(1-(3-(difluoromethyl)-2-fluorophenyl)ethyl)-6-(1-isopropylpiperidin-4-yl)-7-methoxy-2-methylpyrido[2,3-d]pyrimidin-4-amine]
2 | < 100 | < 50 | ≤ 1000 | < 500 | ≤ 1000 | < 500 | COc1nc2nc(C)nc(N[C@H](C)c3cccc(C(F)F)c3F)c2cc1C1CCN(C)CC1 [Compound 113, (R)-N-(1-(3-(difluoromethyl)-2-fluorophenyl)ethyl)-7-methoxy-2-methyl-6-(1-methylpiperidin-4-yl)pyrido[2,3-d]pyrimidin-4-amine]
3 | < 100 | < 50 | ≤ 1000 | – | ≤ 1000 | – | COc1nc2nc(C)nc(N[C@H](C)c3cccc(C(F)F)c3F)c2cc1S(=O)(=O)N1CCNCC1 [Compound 114, (R)-N-(1-(3-(difluoromethyl)-2-fluorophenyl)ethyl)-7-methoxy-2-methyl-6-(piperazin-1-ylsulfonyl)pyrido[2,3-d]pyrimidin-4-amine]
4 | < 100 | < 50 | ≤ 1000 | < 500 | ≤ 1000 | – | CCN1CCN(c2cc3c(N[C@H](C)c4cccc(C(F)F)c4F)nc(C)nc3nc2OC)CC1 [Compound 115, (R)-N-(1-(3-(difluoromethyl)-2-fluorophenyl)ethyl)-6-(4-ethylpiperazin-1-yl)-7-methoxy-2-methylpyrido[2,3-d]pyrimidin-4-amine]
5 | – | < 50 | ≤ 1000 | – | ≤ 1000 | – | COc1nc2nc(C)nc(N[C@H](C)c3cccc(C(F)F)c3F)c2cc1C1CCN(C(=O)NC2COC2)CC1 [Compound 116, (R)-4-(4-((1-(3-(difluoromethyl)-2-fluorophenyl)ethyl)amino)-7-methoxy-2-methylpyrido[2,3-d]pyrimidin-6-yl)-N-(oxetan-3-yl)piperidine-1-carboxamide]
6 | < 100 | < 50 | ≤ 1000 | < 500 | ≤ 1000 | < 500 | CCN1CCC(c2cc3c(N[C@H](C)c4cccc(C(F)F)c4F)nc(C)nc3nc2OC)CC1 [Compound 119, (R)-N-(1-(3-(difluoromethyl)-2-fluorophenyl)ethyl)-6-(1-ethylpiperidin-4-yl)-7-methoxy-2-methylpyrido[2,3-d]pyrimidin-4-amine]
7 | – | < 50 | ≤ 1000 | < 500 | ≤ 1000 | – | COc1nc2nc(C)nc(N[C@H](C)c3cccc(C(F)F)c3F)c2cc1N1CCN(C)CC1 [Compound 123, (R)-N-(1-(3-(difluoromethyl)-2-fluorophenyl)ethyl)-7-methoxy-2-methyl-6-(4-methylpiperazin-1-yl)pyrido[2,3-d] pyrimidin-4-amine]
8 | – | < 50 | ≤ 1000 | < 500 | ≤ 1000 | < 500 | COc1nc2nc(C)nc(N[C@H](C)c3cccc(C(F)F)c3F)c2cc1[C@H]1C[C@@H](NC(=O)C2COC2)C1 [Compound 125, N-((1S,3s)-3-(4-(((R)-1-(3-(difluoromethyl)-2-fluorophenyl)ethyl)amino)-7-methoxy-2-methylpyrido[2,3-d]pyrimidin-6-yl)cyclobutyl)oxetane-3-carboxamide]

Row | SMILES | IC50 [1, 4] [nM] | IC50 [1, 5] [nM] | IC50 [2, 6] [nM] | IC50 [2, 7] [nM] | IC50 [3, 8] [nM] | IC50 [3, 9] [nM]
9 | COc1nc2nc(C)nc(N[C@H](C)c3cccc(C(F)F)c3F)c2cc1C1(C#N)CCN(C(C)C)CC1 [Compound 117, (R)-4-(4-((1-(3-(difluoromethyl)-2-fluorophenyl)ethyl)amino)-7-methoxy-2-methylpyrido[2,3-d]pyrimidin-6-yl)-1-isopropylpiperidine-4-carbonitrile] | < 100 | < 50 | ≤ 1000 | – | ≤ 1000 | < 500
